pIC50: −log10 of the molar value. Where two headings read alike, the source gives them in different places.
How the values were obtained:
Plasma TC = assay: in vivo screen designated APCC, plasma total cholesterol in rats on high fat, high cholesterol diet; parameters: species or system male Sprague-Dawley rats; details: dosed at 30 mg/kg; rat; high fat, high cholesterol diet with 0.5% cholic acid; read-out: % Change in Plasma TC Values (mg/dl)
Text: In one in vivo screen designated APCC, male Sprague-Dawley rats (200 to 225 g) were randomly divided into treatment groups and dosed at 4 PM with either vehicle (CMC/Tween) or suspensions of compounds in vehicle. The normal chow diet was then replaced with a high fat, high cholesterol diet with 0.5% cholic acid. The rats consumed this diet ad libitum during the night and were sacrificed at 8 AM to obtain blood samples for cholesterol analysis using standard procedures. Statistical differences between mean cholesterol values for the same vehicle were determined using analysis of variance followed by Fisher's least significant test. Compounds were dosed at 30 mg/kg unless otherwise noted.

[1] = biological target: T1, acyl-CoA: cholesterol acyltransferase (ACAT) (Oryctolagus cuniculus, UniProt G1SFD9); assay: in vitro inhibition of ACAT (IAI), radiolabeled cholesterol oleate formation in rabbit intestinal microsomes; type: biochemical
T1 construct: in a tissue preparation containing rabbit intestinal microsomes; from tissue; host or cells: rabbit intestinal microsomes
T1 sequence (G1SFD9 1-524): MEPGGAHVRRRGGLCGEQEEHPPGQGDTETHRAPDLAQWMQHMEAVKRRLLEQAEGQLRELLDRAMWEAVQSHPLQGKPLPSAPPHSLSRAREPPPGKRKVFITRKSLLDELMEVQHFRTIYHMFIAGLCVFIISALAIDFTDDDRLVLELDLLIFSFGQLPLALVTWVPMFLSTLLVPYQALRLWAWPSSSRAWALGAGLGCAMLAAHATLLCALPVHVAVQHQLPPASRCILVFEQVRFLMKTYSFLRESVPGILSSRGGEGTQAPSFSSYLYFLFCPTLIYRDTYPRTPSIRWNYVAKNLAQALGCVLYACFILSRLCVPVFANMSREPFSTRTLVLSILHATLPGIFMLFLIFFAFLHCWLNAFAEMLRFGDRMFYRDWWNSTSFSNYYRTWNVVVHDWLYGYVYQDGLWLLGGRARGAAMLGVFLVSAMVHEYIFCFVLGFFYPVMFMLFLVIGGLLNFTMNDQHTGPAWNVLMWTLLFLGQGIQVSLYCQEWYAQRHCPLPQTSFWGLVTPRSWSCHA
Method: The ability of representative compounds of the present invention to inhibit ACAT was measured using an in vitro test more fully described in F. J. Field and R. G. Salone, Biochemica et Biophysica 712:557-570 (1982). The test assesses the ability of a test compound to inhibit the acylation of cholesterol by oleic acid by measuring the amount of radiolabeled cholesterol oleate formed from radiolabeled oleic acid in a tissue preparation containing rabbit intestinal microsomes.

| Compound | change in vivo at 30 mg/kg (Plasma TC) [%] | pIC50 [1] | pIC50 ([1]; rabbit intestinal microsomes, read-out: IAI IC50) |
| --- | --- | --- | --- |
| CC(C)c1cccc(C(C)C)c1NC(=O)NS(=O)(=O)N(C(C)C)C(C)C [Example 28, N-[2,6-bis(1-methylethyl)phenyl]-N'-[(diisopropylamino)sulfonyl]urea] | -60 | 5.96 |  |
| CCCCN(CCCC)S(=O)(=O)N(C)C(=O)Nc1c(C(C)C)cccc1C(C)C [Example 44] | -8 |  | < 5.30 |
